In brackets after ≈: the same amount, converted by molar mass. Read-outs that look alike come from different tables or passages of the source.

Data set [1] deals with enoyl acyl-carrier protein reductase (InhA). To be noted: InhA enzymatic activity; cited from earlier work.
The subject of data set [2] is M. tuberculosis H37Rv. To be noted: cited from earlier work.
Data set [3] concerns M. tuberculosis H37Rv. The data set is classed as cell-based, Mycobacterium tuberculosis.
For a further data set, the system named is M. tuberculosis. The experiment in a line: metabolomics: intramycobacterial accumulation and metabolism. The data set is classed as cell-based, Mycobacterium tuberculosis. To be noted: dose-dependent.
For data set [4] the following is noted: Middlebrook 7H9 media supplemented with albumin, dextrose, and saline.

`CCOC(=O)CSc1nc(N)c2c3c(sc2n1)CC(C(C)(C)C)CC3` (stereo not drawn) [CD117]: the IC50 (as a rule, the concentration needed to halve the response being measured) in data set [1] was 34 ± 6 µM. In addition, the MIC (usually the lowest concentration found to suppress growth) in the data set with M. tuberculosis H37Rv [2] (M. tuberculosis H37Rv lab strain, previously reported) was 0.39 µg/mL; in the data set on M. tuberculosis H37Rv [2] (M. tuberculosis H37Rv, 0.39 μg/mL expressed in μM), 1.0 µM; against M. tuberculosis H37Rv [3], 0.39 µg/mL (≈ 1.03 µM). In the data set with M. tuberculosis, the “permeation of the M. tuberculosis cell wall” value was “permeate the M. tuberculosis cell wall”. The “stability in growth media” value in data set [4] is reported as “stable”.
